Source: ChEMBL document CHEMBL3860070, “Optimization and biological evaluation of celastrol derivatives as Hsp90-Cdc37 interaction disruptors with improved druglike properties” (Bioorg Med Chem, 2016)
Active and inactive are the calls of the source. No cut-off for these calls is given here.

Legend:
[1] = organism: Homo sapiens; assay: Inhibition of His-tagged full length Hsp90/GST-tagged Cdc37 middle domain (unknown origin) interaction at 50 uM after 1 hr by TR-FRET assay relative to control
[2] = Inhibition of His-tagged full length Hsp90/GST-tagged Cdc37 middle domain (unknown origin) interaction after 1 hr by TR-FRET assay; parameters: species or system Homo sapiens
[3] = Antiproliferative activity against human MCF7 cells assessed as reduction in cell viability after 48 hrs by MTT assay; type: functional, cell-based; conditions: MCF7, 48 h
[4] = Antiproliferative activity against human PANC1 cells assessed as reduction in cell viability after 48 hrs by MTT assay; type: functional, cell-based; conditions: PANC-1, 48 h
[5] = Antiproliferative activity against human A549 cells assessed as reduction in cell viability after 48 hrs by MTT assay; type: functional, cell-based; conditions: A549, 48 h
[6] = Antiproliferative activity against paclitaxel-resistant human A549 cells assessed as reduction in cell viability after 48 hrs by MTT assay; type: functional, cell-based; conditions: A549, 48 h
[7] = Permeability of the compound at pH 7.4 by PAMPA-based pION assay; type: ADME; conditions: read-out: permeability
[8] = system: PANC-1; assay: Inhibition of Hsp90/Cdc37 interaction in human PANC1 cells assessed as induction of Hsp70 at 0.1 to 5 uM after 24 hrs by Western blot analysis; type: cell-based
[9] = system: PANC-1; assay: Inhibition of Hsp90/Cdc37 interaction in human PANC1 cells assessed as downregulation of Akt after 24 hrs by Western blot analysis; type: cell-based
[10] = system: PANC-1; assay: Inhibition of Hsp90/Cdc37 interaction in human PANC1 cells assessed as downregulation of Cdk4 after 24 hrs by Western blot analysis; type: cell-based
[11] = Cell cycle arrest in human PANC1 cells assessed as accumulation at G0/G1 phase at 0.5 uM after 24 hrs by propidium iodide staining-based FACS analysis (reference value: 36.48 %); type: functional; conditions: PANC-1
[12] = Cell cycle arrest in human PANC1 cells assessed as accumulation at G2/M phase at 0.5 uM after 24 hrs by propidium iodide staining-based FACS analysis (reference value: 33.56 %); type: functional; conditions: PANC-1
[13] = Cell cycle arrest in human PANC1 cells assessed as accumulation at S phase at 0.5 uM after 24 hrs by propidium iodide staining-based FACS analysis (reference value: 29.96 %); type: functional; conditions: PANC-1
[14] = Cell cycle arrest in human PANC1 cells assessed as accumulation at G0/G1 phase at 1 uM after 24 hrs by propidium iodide staining-based FACS analysis (reference value: 36.48 %); type: functional; conditions: PANC-1
[15] = Cell cycle arrest in human PANC1 cells assessed as accumulation at G2/M phase at 1 uM after 24 hrs by propidium iodide staining-based FACS analysis (reference value: 33.56 %); type: functional; conditions: PANC-1
[16] = Cell cycle arrest in human PANC1 cells assessed as accumulation at S phase at 1 uM after 24 hrs by propidium iodide staining-based FACS analysis (reference value: 29.96 %); type: functional; conditions: PANC-1
[17] = system: PANC-1; assay: Induction of apoptosis in human PANC1 cells assessed as viable cells at 0.5 uM after 24 hrs by Annexin V-FITC/propidium iodide-based FACS analysis (reference value: 94.63 %); type: functional; conditions: PANC-1, 24 h, read-out: Activity
[18] = system: PANC-1; assay: Induction of apoptosis in human PANC1 cells assessed as early apoptotic cells at 0.5 uM after 24 hrs by Annexin V-FITC/propidium iodide-based FACS analysis (reference value: 4.31 %); type: functional
[19] = system: PANC-1; assay: Induction of apoptosis in human PANC1 cells assessed as late apoptotic cells at 0.5 uM after 24 hrs by Annexin V-FITC/propidium iodide-based FACS analysis (reference value: 0.30 %); type: functional
[20] = system: PANC-1; assay: Induction of apoptosis in human PANC1 cells assessed as necrotic cells at 0.5 uM after 24 hrs by Annexin V-FITC/propidium iodide-based FACS analysis (reference value: 0.75 %); type: functional
[21] = system: PANC-1; assay: Induction of apoptosis in human PANC1 cells assessed as viable cells at 1 uM after 24 hrs by Annexin V-FITC/propidium iodide-based FACS analysis (reference value: 94.63 %); type: functional; conditions: PANC-1, 24 h, read-out: Activity
[22] = system: PANC-1; assay: Induction of apoptosis in human PANC1 cells assessed as early apoptotic cells at 1 uM after 24 hrs by Annexin V-FITC/propidium iodide-based FACS analysis (reference value: 4.31 %); type: functional
[23] = system: PANC-1; assay: Induction of apoptosis in human PANC1 cells assessed as late apoptotic cells at 1 uM after 24 hrs by Annexin V-FITC/propidium iodide-based FACS analysis (reference value: 0.30 %); type: functional
[24] = system: PANC-1; assay: Induction of apoptosis in human PANC1 cells assessed as necrotic cells at 1 uM after 24 hrs by Annexin V-FITC/propidium iodide-based FACS analysis (reference value: 0.75 %); type: functional
[25] = system: PANC-1; assay: Induction of apoptosis in human PANC1 cells after 24 hrs by Annexin V-FITC/propidium iodide-based FACS analysis; type: functional, cell-based

CC1=C(O)C(=O)C=C2C1=CC=C1[C@@]2(C)CC[C@@]2(C)[C@@H]3C[C@](C)(C(=O)NCCN4CCN(C)CC4)CC[C@]3(C)CC[C@]12C
inhibition [1]: 96.9%
IC50 [2]: 4.71 µM
IC50 [3]: 1020 nM
IC50 [4]: 1120 nM
IC50 [5]: 1010 nM
IC50 [6]: 450 nM
Papp [7]: 29 ×10⁻⁶ cm/s
inhibition [8]: Active
inhibition [9]: Dose-dependent effect
inhibition [10]: Dose-dependent effect
Activity [11]: 46.6%
Activity [12]: 32%
Activity [13]: 21.4%
Activity [14]: 55.4%
Activity [15]: 25.9%
Activity [16]: 18.7%
viability at 0.5 µM [17]: 90%
Activity [18]: 8.37%
Activity [19]: 0.4%
Activity [20]: 1.27%
viability at 1 µM [21]: 64.1%
Activity [22]: 31.01%
Activity [23]: 2.61%
Activity [24]: 2.31%
Activity [25]: Dose-dependent effect
